The results in this text go back to article PMC9386326, “Dysregulated glucuronic acid metabolism exacerbates hepatocellular carcinoma progression and metastasis through the TGFβ signalling pathway” (Clinical and Translational Medicine, 2022).

Molecules are shown by their SMILES.

The experiment concerns the target T1, PTBP3 (Homo sapiens, UniProt O95758).
T1 construct: endogenous full-length protein in human hepatoma (Huh7) cells / cell lysates
Description: CETSA (cell lysate, immunoblot) and DARTS (pronase). Conditions: endogenous PTBP3 in Huh7 cells / lysates; stabilisation, authors call it potential direct binding. The class given is biochemical. For orientation: In western blotting, separated proteins are transferred to a membrane and probed.

T1 sequence (O95758 whole entry): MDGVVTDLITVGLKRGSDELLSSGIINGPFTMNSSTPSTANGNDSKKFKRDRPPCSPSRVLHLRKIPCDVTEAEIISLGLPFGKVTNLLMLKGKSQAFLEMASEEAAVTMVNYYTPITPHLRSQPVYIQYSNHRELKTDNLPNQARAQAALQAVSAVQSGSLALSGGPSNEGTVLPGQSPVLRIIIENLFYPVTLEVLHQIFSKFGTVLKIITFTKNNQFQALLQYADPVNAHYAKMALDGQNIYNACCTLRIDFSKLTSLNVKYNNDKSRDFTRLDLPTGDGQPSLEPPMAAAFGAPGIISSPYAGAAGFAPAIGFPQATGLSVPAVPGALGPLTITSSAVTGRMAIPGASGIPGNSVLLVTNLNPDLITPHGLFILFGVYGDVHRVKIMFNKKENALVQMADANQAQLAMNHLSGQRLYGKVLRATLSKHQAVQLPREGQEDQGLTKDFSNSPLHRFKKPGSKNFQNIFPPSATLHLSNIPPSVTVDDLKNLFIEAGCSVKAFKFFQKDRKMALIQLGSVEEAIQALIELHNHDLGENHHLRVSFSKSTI

With `O=C(O)[C@H]1O[C@H](OP(=O)(O)OP(=O)(O)OC[C@H]2O[C@@H](n3ccc(=O)[nH]c3=O)[C@H](O)[C@@H]2O)[C@H](O)[C@@H](O)[C@@H]1O` [UDP-GlcUA], the “CETSA (cell lysate, immunoblot) and DARTS (pronase)” value is “PTBP3 protein stability is enhanced upon UDP‐GlcUA treatment, suggesting a potential direct binding”.
